The series concerns CCRIS mutagenicity, Ames/micronucleus/aberration tests. In words: CCRIS mutagenicity studies.
[1] abbreviates: Test System: AMES SALMONELLA TYPHIMURIUM, Strain/Indicator: TA98, Metabolic Activation: NONE, Method: STANDARD PLATE.
Where [2] appears, read: Test System: AMES SALMONELLA TYPHIMURIUM, Strain/Indicator: TA100, Metabolic Activation: NONE, Method: STANDARD PLATE.

Activity calls are given as the source filed them. How the calls were made is not given here.

For `CC(=O)OC[C@@]1(O)CC23CC[C@@H]4c5ccoc5C=C[C@@]4(C)[C@@H]2CC[C@@H]1C3`, the mutagenic call by setting is: (Test System: AMES SALMONELLA TYPHIMURIUM, Strain/Indicator: TM677, Metabolic Activation: NONE, Method: PREINCUBATION) “inactive; negative”; (Test System: AMES SALMONELLA TYPHIMURIUM, Strain/Indicator: TM677, Metabolic Activation: RAT, LIVER, S-9, AROCLOR 1254, Method: PREINCUBATION) “inactive; negative”.
For `Nc1nnc(/C(=C/c2ccc([N+](=O)[O-])o2)c2ccco2)o1`, the mutagenic call (Test System: UDS HUMAN FIBROBLASTS, Strain/Indicator: THY INCORP (NON-S-PHASE), Metabolic Activation: NONE, Method: AUTORADIOGRAPHY) was “active; positive”.
In the case of `CC(C)(C)CBr`, the mutagenic call was “inactive; negative” (Test System: AMES SALMONELLA TYPHIMURIUM, Strain/Indicator: TA97, Metabolic Activation: NONE, Method: STANDARD PLATE); “inactive; negative” under setting [1]; “inactive; negative” (Test System: AMES SALMONELLA TYPHIMURIUM, Strain/Indicator: TA98, Metabolic Activation: RAT, LIVER, S-9, AROCLOR, Method: STANDARD PLATE); “inactive; negative” under setting [2]; “inactive; negative” (Test System: AMES SALMONELLA TYPHIMURIUM, Strain/Indicator: TA100, Metabolic Activation: RAT, LIVER, S-9, AROCLOR, Method: STANDARD PLATE); “inactive; negative” (Test System: AMES SALMONELLA TYPHIMURIUM, Strain/Indicator: TA1535, Metabolic Activation: NONE, Method: STANDARD PLATE). In addition, the mutagenic call reads like this: (Test System: AMES SALMONELLA TYPHIMURIUM, Strain/Indicator: TA1537, Metabolic Activation: NONE, Method: STANDARD PLATE) “inactive; negative”; (Test System: AMES SALMONELLA TYPHIMURIUM, Strain/Indicator: TA1538, Metabolic Activation: NONE, Method: STANDARD PLATE) “inactive; negative”; (Test System: AMES SALMONELLA TYPHIMURIUM, Strain/Indicator: TA2637, Metabolic Activation: NONE, Method: STANDARD PLATE) “inactive; negative”.
For the compound `Oc1ccc([C@H]2COc3cc(O)ccc3C2)cc1`, the mutagenic call (End Point: IN VITRO MICRONUCLEUS, Test System: CHINESE HAMSTER V79 CELLS, Metabolic Activation: NONE) was “active; positive”.
`CCn1c(N)nc2c3cccnc3ccc21`: for the setting “Test System: AMES SALMONELLA TYPHIMURIUM, Strain/Indicator: TA98, Metabolic Activation: RAT, LIVER, S-9, AROCLOR 1254, Method: PREINCUBATION”, the mutagenic call is “active; positive”.
On to `Cc1ccc(N=Nc2ccc(C)c(N)c2)cc1N`, for which the mutagenic call runs as follows: (Test System: AMES SALMONELLA TYPHIMURIUM, Strain/Indicator: TA98, Metabolic Activation: NONE, Method: PREINCUBATION) “inactive; negative”; (Test System: AMES SALMONELLA TYPHIMURIUM, Strain/Indicator: TA98, Metabolic Activation: NONE, Method: SUSPENSION/PLATE) “inactive; negative”; (Test System: AMES SALMONELLA TYPHIMURIUM, Strain/Indicator: TA98, Metabolic Activation: RAT, LIVER, S-9, PCB, Method: PREINCUBATION) “active; positive”; (Test System: AMES SALMONELLA TYPHIMURIUM, Strain/Indicator: TA98, Metabolic Activation: RAT, LIVER, S-9, PHENOBARBITAL AND 5,6-BENZOFLAVONE, Method: SUSPENSION/PLATE) “active; positive”; (Test System: AMES SALMONELLA TYPHIMURIUM, Strain/Indicator: TA100, Metabolic Activation: NONE, Method: SUSPENSION/PLATE) “inactive; negative”; (Test System: AMES SALMONELLA TYPHIMURIUM, Strain/Indicator: TA100, Metabolic Activation: RAT, LIVER, S-9, PHENOBARBITAL AND 5,6-BENZOFLAVONE, Method: SUSPENSION/PLATE) “active; positive”.
On to `O=C(Nc1ccc(Cl)cc1)c1csc([N+](=O)[O-])c1`, for which the mutagenic call by setting is: under setting [1], “active; positive”; under setting [2], “active; positive”.
